Experimental data from PubChem BioAssay (NCI).
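These data come from cells grown in 96-well plates and exposed to compound for 48 hours at five concentrations. TGI: total growth inhibition.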

Experiments:
Assay in all cases: growth of human tumour cells (NCI), 48 h
SF-295 CNS = test system: SF-295 CNS
HT29 colon = test system: HT29 colon
MOLT-4 leukemia = test system: MOLT-4 leukemia
NCI-H23 lung = test system: NCI-H23 lung
SW-620 colon = test system: SW-620 colon
K-562 leukemia = test system: K-562 leukemia
LOX IMVI melanoma = test system: LOX IMVI melanoma
COLO 205 colon = test system: COLO 205 colon
T-47D breast = test system: T-47D breast
NCI/ADR-RES ovarian = test system: NCI/ADR-RES ovarian

O=C(Nc1cccc2ccccc12)Oc1ccccc1C1CCCCC1
TGI (SF-295 CNS): 31.3 µM | TGI (HT29 colon): 34.1 µM | TGI (MOLT-4 leukemia): 55.3 µM | TGI (NCI-H23 lung): 33.7 µM | TGI (SW-620 colon): 40 µM | TGI (K-562 leukemia): 60.4 µM | TGI (LOX IMVI melanoma): 31.1 µM

COc1ccc2oc(=N)c(C(=O)Nc3cccc4ccccc34)cc2c1
TGI (SF-295 CNS): 25.4 µM | TGI (HT29 colon): > 100 µM | TGI (COLO 205 colon): > 100 µM | TGI (NCI-H23 lung): > 100 µM | TGI (SW-620 colon): > 100 µM | TGI (T-47D breast): > 100 µM | TGI (NCI/ADR-RES ovarian): > 100 µM | TGI (K-562 leukemia): > 100 µM

CC(=O)NC1C(OCc2ccccc2)OC(CO)C(O)C1OCC(=O)NC(C)C(=O)NC(CCC(=O)NCCCCNc1ccc([N+](=O)[O-])c2[nH]c3ccccc3c(=O)c12)C(N)=O (stereo not drawn)
TGI (SF-295 CNS): > 100 µM | TGI (HT29 colon): > 100 µM | TGI (COLO 205 colon): > 100 µM | TGI (NCI-H23 lung): > 100 µM | TGI (SW-620 colon): > 100 µM | TGI (T-47D breast): > 100 µM | TGI (NCI/ADR-RES ovarian): > 100 µM | TGI (K-562 leukemia): > 100 µM | TGI (LOX IMVI melanoma): > 100 µM

CCC(C)[C@@H](NCc1ccccc1)[C@H](OCc1ccccc1)[C@@H]1COC(C)(C)O1 (stereo partly drawn)
TGI (SF-295 CNS): 60.2 µM | TGI (HT29 colon): 23.7 µM | TGI (COLO 205 colon): 36.6 µM | TGI (MOLT-4 leukemia): 62.3 µM | TGI (NCI-H23 lung): 44.3 µM | TGI (SW-620 colon): 48.5 µM | TGI (NCI/ADR-RES ovarian): 55.3 µM | TGI (K-562 leukemia): 59.8 µM | TGI (LOX IMVI melanoma): 38 µM

O=C1N[C@H]2c3c(Cl)sc(Cl)c3/C(=N/O)[C@H]2O1
TGI (HT29 colon): > 100 µM | TGI (COLO 205 colon): > 100 µM | TGI (MOLT-4 leukemia): > 100 µM | TGI (SW-620 colon): > 100 µM | TGI (T-47D breast): > 100 µM | TGI (NCI/ADR-RES ovarian): > 100 µM | TGI (K-562 leukemia): > 100 µM

O=C(CSc1nnc(-c2ccc(N=Cc3ccc(Cl)cc3)cc2)o1)Nc1ccccc1Cl
TGI (SF-295 CNS): > 100 µM | TGI (HT29 colon): > 100 µM | TGI (COLO 205 colon): > 100 µM | TGI (MOLT-4 leukemia): > 100 µM | TGI (NCI-H23 lung): > 100 µM | TGI (SW-620 colon): > 100 µM | TGI (K-562 leukemia): > 100 µM | TGI (LOX IMVI melanoma): > 100 µM

Cc1nc2c(=S)[nH]ncc2[nH]1
TGI (SF-295 CNS): > 100 µM | TGI (HT29 colon): > 100 µM | TGI (COLO 205 colon): > 100 µM | TGI (NCI-H23 lung): > 100 µM | TGI (SW-620 colon): > 100 µM | TGI (T-47D breast): > 100 µM | TGI (NCI/ADR-RES ovarian): > 100 µM | TGI (K-562 leukemia): > 100 µM | TGI (LOX IMVI melanoma): > 100 µM

O=C(O)CCCl
TGI (SF-295 CNS): > 5000 µM | TGI (HT29 colon): > 5000 µM | TGI (COLO 205 colon): > 5000 µM | TGI (MOLT-4 leukemia): > 5000 µM | TGI (NCI-H23 lung): > 5000 µM | TGI (SW-620 colon): > 5000 µM | TGI (K-562 leukemia): > 5000 µM | TGI (LOX IMVI melanoma): > 5000 µM

O=c1cnn(C/C=C\CO)c(=O)[nH]1
TGI (COLO 205 colon): > 100 µM | TGI (NCI-H23 lung): > 100 µM | TGI (SW-620 colon): > 100 µM | TGI (T-47D breast): > 100 µM | TGI (NCI/ADR-RES ovarian): > 100 µM | TGI (K-562 leukemia): > 100 µM | TGI (LOX IMVI melanoma): > 100 µM

O=C(CSCC(=O)N/N=C/c1cc(I)cc(I)c1O)N/N=C/c1cc(I)cc(I)c1O
TGI (SF-295 CNS): 47.1 µM | TGI (HT29 colon): > 100 µM | TGI (COLO 205 colon): 63.8 µM | TGI (MOLT-4 leukemia): 29.2 µM | TGI (NCI-H23 lung): 25.3 µM | TGI (SW-620 colon): > 100 µM | TGI (T-47D breast): > 100 µM | TGI (NCI/ADR-RES ovarian): 59.9 µM | TGI (K-562 leukemia): 37.7 µM

COC(=O)c1cn(CCCC(=O)O)nn1
TGI (SF-295 CNS): > 100 µM | TGI (HT29 colon): > 100 µM | TGI (COLO 205 colon): > 100 µM | TGI (MOLT-4 leukemia): > 100 µM | TGI (NCI-H23 lung): > 100 µM | TGI (SW-620 colon): > 100 µM | TGI (T-47D breast): > 100 µM | TGI (NCI/ADR-RES ovarian): > 100 µM | TGI (LOX IMVI melanoma): > 100 µM

CCc1nn(CN2CCN(C)CC2)c(=S)n1/N=C\c1ccc(-c2ccc([N+](=O)[O-])cc2)o1
TGI (SF-295 CNS): > 100 µM | TGI (HT29 colon): > 100 µM | TGI (MOLT-4 leukemia): > 100 µM | TGI (NCI-H23 lung): > 100 µM | TGI (T-47D breast): 68.5 µM | TGI (NCI/ADR-RES ovarian): 73.2 µM | TGI (K-562 leukemia): > 100 µM | TGI (LOX IMVI melanoma): > 100 µM
